As usually defined, the inhibition is the percentage by which the read-out fell short of the control. Higher therefore signals strong suppression. By AUC(0-inf) is commonly meant total exposure, with the tail of the curve extrapolated. As a reminder, the clearance is the rate of elimination divided by the concentration. A higher clearance goes with efficient removal. In general, Cmax refers to the maximum level reached in the sampled fluid or tissue. Broadly, the Tmax is the time at which the peak concentration occurs.

The text below walks through data of patent US20260174786A1, “A NITROGEN-CONTAINING SPIROCYCLIC COMPOUND, PHARMACEUTICAL COMPOSITION AND USE THEREOF” (Prime Gene Therapeutics Co., Ltd., priority 2022, published 2026).

One data set has as its target hTRPV1 (Homo sapiens, UniProt Q8NER1). The data set can be described thus: Inhibition rate on different hTRPs: hTRPV1. In kind it is cell-based.
Data set [1] can be described thus: Stability assessment of compounds at room temperature under 92.5% humidity (LC-MS). In kind it is physicochemical. As to conditions: 92.5% humidity. The procedure:
Taking the compound of Example 21 and KM-001-E1 in WO2021154966A1 as examples, the stability thereof was compared:
Compound of Example 21 and KM-001-E1 were accurately weighed and placed in penicillin bottles, and placed at room temperature under 92.5% humidity (open) conditions for 5-10 days to investigate the stability of the compounds.
• instrument: Thermo U3000-ISQEC • column: Xtimate UHPLC C18 1.8 μm 4.6*50 mm • Column temperature: 35° C. • wavelength: 210 nm, 254 nm • mobile phase A: 0.05% formic acid aqueous solution; mobile phase B: 0.05% formic acid acetonitrile; gradient: 30% B 0-1.2 min, 95% B 1.2-3.3 min, 30% B 3.3-4.5 min;
Analyzing the degradation impurities of each compound under 92.5% humidity conditions using LC-MS: The main impurities in Example 21 had m/z 427.17, with a retention time of 2.55 minutes. After being left for 10 days, the peak area proportion was only 0.3%; The main impurities in KM-001-E1 has m/z=431.14 and m/z=415.16, with retention times of 2.31 minutes and 2.64 minutes, respectively. […] Based on LC-MS and NMR data analysis, it can be inferred that the main impurities produced in Example 21 are ketones, while the main impurities produced in KM-001-E1 are aldehydes and carboxylic acids.

For another data set, the target named is hTRPA1 (Homo sapiens, UniProt O75762). Briefly: Inhibition rate on different hTRPs: hTRPA1. The class given is cell-based.
A further data set deals with hTRPV4 (Homo sapiens, UniProt Q9HBA0). The data set can be described thus: Inhibition rate on different hTRPs: hTRPV4. In kind it is cell-based.
A short description of data set [2]: Balanced dialysis plasma protein binding test (human). The class given is in vitro ADME. As for the experimental part:
(§1) 1. Immersing a dialysis membrane (water: 60 minutes, 20% ethanol: 20 minutes, dialysis buffer: 20 minutes). 2. Diluting the test compound in dimethyl sulfoxide (working solution) to 200 μM. 3. Thawing the plasma in a 37° C. water bath and centrifuge the plasma at 3220 g for 10 minutes to remove blood clots. 4. Transferring the supernatant to a new tube and preheating it in a 37° C. water bath for 10 minutes. 5. Assembling HTD dialysis equipment according to the manufacturer's guidelines. 6. Adding 3 μL of 200 μM test compound to 597 μL of plasma and rotating at 1000 rpm for 2 minutes. 7. Transferring 50 μL of spiked plasma to a 96 well plate, then adding 50 μL of dialysis buffer and 200 μL of methanol, using IS * as the T0 sample. 8. Adding 120 μL of spiked plasma and 120 μL of dialysis buffer in duplicate into the chamber of the HTD dialysis device. 9. Covering the dialysis equipment with a breathable cover and incubating the dialysis equipment and the remaining spiked plasma at 37° C. (100 rpm, 5% CO2) for 6 hours. 10. Transferring 50 μL of dialyzed sample from the dialysis buffer and the plasma chamber to a separate 96 well plate, then adding 50 μL of blank plasma or dialysis buffer and 200 μL of methanol, with IS * as the B and P samples. 11. Transferring 50 μL of remaining spiked plasma (as described in step 9) to a 96 well plate, then adding 50 μL of dialysis buffer and 200 μL of methanol, with IS * as the T6 sample. 12. Centrifuging the sample plate at 3220 g for 40 minutes. 13. Transferring 100 μL of supernatant onto an analytical plate containing an appropriate volume of water for LC-MS/MS. 14. Data analysis.

Data set [3] in a line: Liver microsome metabolism stability test (human). As to conditions: human liver microsomes, 1 μM compound. In kind it is in vitro ADME. The procedure:
(§2) Two separate experiments were conducted. a) NADPH: 10 μL of 20 mg/mL liver microsomes and 40 μL of 10 mM NADPH were added to a culture medium. The final concentrations of microsomes and NADPH were 0.5 mg/mL and 1 mM, respectively. b) NADPH free: 10 μL of 20 mg/mL liver microsomes and 40 μL of ultrapure H2O were added to a culture medium. The final concentration of microsomes was 0.5 mg/mL.
(§3) At the beginning of the reaction, 4 μL of 100 μM test compound solution or a control compound solution with a final concentration of 1 μM were added, and proceed at 37° C.
(§4) 50 μL aliquots were taken from the reaction solution at 0, 7, 15, 30, and 60 minutes. The reaction was stopped by adding 4 volumes of cold acetonitrile and IS (100 nM alprazolam, 200 nM labetalol, 200 nM caffeine, and 2 μM ketoprofen). The samples were centrifuged at 3220 grams for 40 minutes. 100 μL supernatant divided equally was mixed with 100 μL of ultrapure H2O, and use for LC-MS/MS analysis.
(In general: Liver microsomes are vesicles of endoplasmic reticulum, rich in cytochrome P450 enzymes.)

The nature of data set [4]: Pharmacokinetic experiments in male SD rats. In kind it is in vivo, rat. The procedure: Male SD rats were grouped in groups of 3 rats each and orally administered with the compound of Example (10 mg/kg) and intravenously injected with the compound of Example (2 mg/kg). Animals were fasted overnight before the experiment, from 10 hours before administration to 4 hours after administration. Blood samples were collected at 0.25, 0.5, 1, 2, 4, 8, and 24 hours after administration in the oral group, and at 0.083, 0.25, 0.5, 1, 2, 4, 8, and 24 hours after injection in the intravenous group. After anesthesia with isoflurane using a small animal anesthesia machine, 0.3 mL of whole blood was collected through the retinal venous plexus, and placed in a heparin anticoagulant tube. The sample was centrifuged at 4° C. and 4000 rpm for 5 minutes, and the plasma was transferred to the centrifuge tube and stored at −80° C. until analysis. The plasma samples were extracted using protein precipitation method, and the extract was analyzed by LC-MS/MS.

Data set [5] can be described thus: Liver microsome metabolism stability test (rat). The class given is in vitro ADME. As to conditions: rat liver microsomes, 1 μM compound. As for the experimental part:
as §2, §3, §4

The nature of data set [6]: Balanced dialysis plasma protein binding test (rat). In kind it is in vitro ADME. As for the experimental part: as §1
The mark [7] stands for this setting: male, SD, rat, plasma, intravenous, 2 mg/kg.
The mark [8] stands for this setting: male, SD, rat, plasma, po, gavage, 10 mg/kg.

hTRPA1, sequence (O75762 whole entry): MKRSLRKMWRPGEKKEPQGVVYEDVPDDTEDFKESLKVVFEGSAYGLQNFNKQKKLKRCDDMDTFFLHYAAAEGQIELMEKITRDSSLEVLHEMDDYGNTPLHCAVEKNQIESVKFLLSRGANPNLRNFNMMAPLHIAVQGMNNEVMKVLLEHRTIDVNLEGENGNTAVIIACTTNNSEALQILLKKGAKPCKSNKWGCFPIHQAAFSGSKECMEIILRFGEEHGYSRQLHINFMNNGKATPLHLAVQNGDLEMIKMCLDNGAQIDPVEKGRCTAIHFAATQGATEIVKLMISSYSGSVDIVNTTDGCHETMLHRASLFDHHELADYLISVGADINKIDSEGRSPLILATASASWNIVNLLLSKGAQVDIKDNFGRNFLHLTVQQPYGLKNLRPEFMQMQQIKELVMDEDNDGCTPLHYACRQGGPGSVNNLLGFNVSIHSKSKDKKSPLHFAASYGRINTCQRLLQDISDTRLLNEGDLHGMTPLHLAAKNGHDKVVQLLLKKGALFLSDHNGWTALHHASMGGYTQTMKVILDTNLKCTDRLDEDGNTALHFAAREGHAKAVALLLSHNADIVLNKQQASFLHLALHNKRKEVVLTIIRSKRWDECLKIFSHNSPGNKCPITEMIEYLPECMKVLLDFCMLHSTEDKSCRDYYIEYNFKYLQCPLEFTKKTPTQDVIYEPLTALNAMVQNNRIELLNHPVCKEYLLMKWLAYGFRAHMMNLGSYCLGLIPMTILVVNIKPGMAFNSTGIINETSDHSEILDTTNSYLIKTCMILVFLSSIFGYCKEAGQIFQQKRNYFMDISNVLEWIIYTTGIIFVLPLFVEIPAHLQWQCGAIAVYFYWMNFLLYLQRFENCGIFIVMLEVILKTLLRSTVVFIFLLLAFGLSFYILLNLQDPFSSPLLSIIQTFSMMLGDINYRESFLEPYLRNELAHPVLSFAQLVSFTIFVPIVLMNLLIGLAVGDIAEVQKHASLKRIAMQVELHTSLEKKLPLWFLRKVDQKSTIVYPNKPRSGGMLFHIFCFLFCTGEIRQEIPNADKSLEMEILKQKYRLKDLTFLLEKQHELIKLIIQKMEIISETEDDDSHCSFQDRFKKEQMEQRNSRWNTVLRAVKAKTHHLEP
hTRPV1, sequence (Q8NER1 whole entry): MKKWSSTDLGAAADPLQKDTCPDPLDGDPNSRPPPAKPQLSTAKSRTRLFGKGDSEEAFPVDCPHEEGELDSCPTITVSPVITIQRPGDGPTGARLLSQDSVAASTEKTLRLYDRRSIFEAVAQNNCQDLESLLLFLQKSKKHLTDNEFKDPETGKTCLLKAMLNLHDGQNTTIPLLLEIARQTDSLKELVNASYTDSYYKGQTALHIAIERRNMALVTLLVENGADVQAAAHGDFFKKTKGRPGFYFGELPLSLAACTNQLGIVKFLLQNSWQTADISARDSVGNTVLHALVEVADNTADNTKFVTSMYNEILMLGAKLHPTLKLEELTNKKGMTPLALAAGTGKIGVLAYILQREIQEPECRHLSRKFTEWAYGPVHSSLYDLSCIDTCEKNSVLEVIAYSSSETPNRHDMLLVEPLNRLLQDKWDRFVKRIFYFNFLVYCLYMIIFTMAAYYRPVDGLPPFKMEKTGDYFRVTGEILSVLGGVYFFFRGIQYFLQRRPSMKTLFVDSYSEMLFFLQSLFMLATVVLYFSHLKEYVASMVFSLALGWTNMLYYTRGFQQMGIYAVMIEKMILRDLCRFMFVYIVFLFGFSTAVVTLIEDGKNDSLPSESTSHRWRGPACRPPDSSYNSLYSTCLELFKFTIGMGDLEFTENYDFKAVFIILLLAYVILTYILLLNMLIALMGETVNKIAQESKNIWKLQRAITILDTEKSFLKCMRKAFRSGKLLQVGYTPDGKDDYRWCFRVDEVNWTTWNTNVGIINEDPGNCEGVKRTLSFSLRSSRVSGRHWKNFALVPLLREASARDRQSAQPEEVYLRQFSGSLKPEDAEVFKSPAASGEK
hTRPV4, sequence (Q9HBA0 whole entry): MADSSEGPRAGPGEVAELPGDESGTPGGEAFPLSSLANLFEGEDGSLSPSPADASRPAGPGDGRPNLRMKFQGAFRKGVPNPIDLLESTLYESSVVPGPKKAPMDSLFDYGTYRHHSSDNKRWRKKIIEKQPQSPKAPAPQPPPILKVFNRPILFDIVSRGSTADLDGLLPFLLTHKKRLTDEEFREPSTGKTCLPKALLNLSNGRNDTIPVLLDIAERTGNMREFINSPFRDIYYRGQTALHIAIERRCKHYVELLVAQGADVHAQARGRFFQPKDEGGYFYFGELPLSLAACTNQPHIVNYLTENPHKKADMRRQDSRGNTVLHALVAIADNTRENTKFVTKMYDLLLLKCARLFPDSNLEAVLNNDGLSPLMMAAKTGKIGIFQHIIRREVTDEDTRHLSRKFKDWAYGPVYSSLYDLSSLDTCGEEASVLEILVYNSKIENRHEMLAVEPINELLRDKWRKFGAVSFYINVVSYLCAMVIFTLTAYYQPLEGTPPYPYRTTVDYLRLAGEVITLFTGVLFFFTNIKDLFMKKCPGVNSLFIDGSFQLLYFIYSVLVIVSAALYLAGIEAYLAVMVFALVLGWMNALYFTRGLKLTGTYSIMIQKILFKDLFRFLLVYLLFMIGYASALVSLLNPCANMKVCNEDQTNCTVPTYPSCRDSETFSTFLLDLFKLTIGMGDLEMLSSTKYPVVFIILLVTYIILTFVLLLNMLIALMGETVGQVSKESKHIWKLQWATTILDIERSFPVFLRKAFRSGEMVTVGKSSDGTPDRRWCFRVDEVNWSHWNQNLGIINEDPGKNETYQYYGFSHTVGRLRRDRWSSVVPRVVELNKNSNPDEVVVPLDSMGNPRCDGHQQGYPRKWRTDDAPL

On to `O=C(c1ccc(F)cn1)N1CC[C@@]2(C[C@@H](O)c3cc(-c4ccccc4C4CC4)ccc32)C1` [Example 21, ((1S,3R)-5-(2-cyclopropylphenyl)-3-hydroxy-2,3-dihydrospiro[indene-1,3′-pyrrolidine]-1′-yl)(5-fluoropyridin-2-yl)ketone], for which the inhibition at 0.3 µM on hTRPV1 (hTRPV1, 0.3 μM) was 5.62%; on hTRPA1 (hTRPA1, 0.3 μM), 10.7%; on hTRPV4 (hTRPV4, 0.3 μM), 29.3%. Also, the Selectivity ratio on hTRPV1 (inhibition rate on TRPV3 / inhibition rate on hTRPV1, 0.3 μM) was determined as 16.0X; on hTRPA1 (inhibition rate on TRPV3 / inhibition rate on hTRPA1, 0.3 μM), 8.4X; at hTRPV4 (inhibition rate on TRPV3 / inhibition rate on hTRPV4, 0.3 μM), 3.1X. The “stability compared with KM-001-E1 / compounds of WO2021154966A1” value in [1] is listed as “better chemical stability than the primary alcohol compound in WO2021154966A1”.

`O=C(c1ccc(F)cn1)N1CCC2(CC(O)c3cc(-c4ccccc4C4CC4)ccc32)C1` (centres unmarked) [Example 15, (5-(2-cyclopropylphenyl)-3-hydroxy-2,3-dihydrospiro[indene-1,3′-pyrrolidine]-1′-yl)(5-fluoropyridin-2-yl) ketone]: in [2], the recover % was determined as 87.63%. Moreover, the remaining % in data set [2] (6 hours) amounted to 97.37%. For the same molecule, in data set [2] (6 hours dialysis), the binding % turned out to be 99.58% and the dissociated % was 0.42%. Further, the “in vitro Clint” value in data set [3] was 70.41 microliters/minute/milligrams. For the same molecule, the half-life at 1 μM in [3] (read-out: in vitro T1/2) turned out to be 0.328 h. In data set [4] (gavage, 10 mg/kg), this molecule returned an F of 80.6%. In data set [4] (setting [7]), the AUC(0-inf) is 10.5 µg·h/mL, the C0 came to 4.06 µg/mL, the clearance amounted to 0.198 L/h/kg and the half-life was 1.63 h. In addition, in data set [4] (male, SD, rat, plasma, intravenous, 2 mg/kg, read-out: Vss), the Vd amounted to 0.41 L/kg. Besides, in [4] (setting [8]), the AUC(0-inf) came to 42.2 µg·h/mL, the peak level (Cmax) was 8.05 µg/mL, the Tmax stood at 1.33 h and the half-life was 1.88 h. Further, in [5], the “in vitro Clint” value is on record as 53.68 microliters/minute/milligrams. Besides, the half-life at 1 μM in [5] (read-out: in vitro T1/2) amounted to 0.43 h. Further, the recover % in [6] is 92.94%. Also, the remaining % in [6] (6 hours) worked out at 102.46%. In data set [6] (6 hours dialysis), the binding % is 99.78% and the dissociated % is 0.22%.
